# Laboratory results taken from publication PMC3769509 (Nuclear medicine and biology, 2013).
# Values joined by “and” are separate entries in the source; they are usually repeats but may differ in a detail not shown here. Equal values may be shown once.
# Legend:
# [1] = PET studies: brain pharmacokinetics; conditions: baboon, iv
# [2] = PET studies: biodistribution in peripheral organs; conditions: baboon, iv
# [3] = PET studies: plasma analysis of unchanged radiotracer; conditions: baboon, iv; for fraction of radioactivity in plasma as unmetabolized compound: 30 min after administration
# [4] = epilepsy patients, after intravenous infusions; cited from earlier work
# [5] = Free fraction in plasma; type: in vitro ADME; conditions: baboon plasma
# [6] = Ex vivo rat brain analysis after [11C]BA administration; type: in vivo; conditions: 5 min and 30 min after administration, data not shown
# [7] = Lipophilicity at pH 7.4; type: physicochemical
# [8] = parent and/or labeled metabolites
brain uptake of carbon-11 [1],high uptake in vertebrae [2],fraction of radioactivity in plasma as unmetabolized compound [3] [%],SMILES,"uptake in heart [2, 8]",% unbound in plasma [5],Log D at pH 7.4 [7],further results
< 0.006 %ID/cc,,,"CCCC(=O)O [BA, n-butyric acid]",,,,
< 0.006 %ID/cc,not observed,85,"O=C(O)CCCc1ccccc1 [PBA, 4-phenylbutyric acid]",,,,
< 0.006 %ID/cc and 0.004 %ID/cc,not observed,98,"CCCC(CCC)C(=O)O [VPA, 2-propylpentanoic acid]",remarkably high,,,free VPA in plasma [4]: 9–15%
,,,"CCCC(CCC)[11C](=O)O [[^11C]VPA, [^11C]Valproic Acid]",exceptionally high,26±0.3 (n=2) %,0.26±0.03 (n=5),intact fraction in plasma ([3]; over 90 min): > 90%

SMILES,brain uptake of carbon-11 [1],high uptake in vertebrae [2],fraction of radioactivity in plasma as unmetabolized compound [3] [%],"uptake in heart [2, 8]",% unbound in plasma [5],Log D at pH 7.4 [7],further results
"CCC[11C](=O)O [[^11C]BA, [^11C]Butyric Acid]",~ 0.006 %ID/cc,high uptake,,very low,82±0.4 (n=2) %,,"intact [11C]BA fraction in brain [6]: very low; uptake in pancreas [2, 8]: relatively high and high; uptake in spleen [2, 8]: relatively high and high"
"O=[11C](O)CCCc1ccccc1 [[^11C]PBA, [^11C]-4-Phenylbutyric Acid]",~ 0.006 %ID/cc,,,moderate,1.5±0.7 (n=6) %,−0.20±0.03 (n=6),"uptake in liver [2, 8]: high"
